Experimental data as given in the supplement of paper PMC10627819.

Legend:
Experiment in all cases: Bliss interaction score (quartile over a dose matrix) (fitness difference); higher = more antagonism (negative = synergy)
S. aureus DSM 20231 = system: S. aureus DSM 20231
Procedure, shortened: (§1)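 Combination data were used to infer fitness under each single drug. Fitness is the OD595 at entry into stationary phase divided by the robust mean of the plate's no-drug wells, with a cap of 1. The Bliss score is the observed minus the expected product fitness, summarised by quartiles over technical, biological and donor/recipient replicates.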

S. pneumoniae D39V = system: S. pneumoniae D39V
Procedure, shortened: as §1

B. subtilis 168 = system: B. subtilis 168
Procedure, shortened: as §1

S. aureus Newman = system: S. aureus Newman
Procedure, shortened: as §1
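Also: first quartile when negative (synergy) and third quartile when positive (antagonism).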

| Structure (SMILES) | Bliss interaction score (S. aureus DSM 20231) | Bliss interaction score (S. pneumoniae D39V) | Bliss interaction score (B. subtilis 168) | Bliss interaction score (S. aureus Newman) | Bliss interaction score (S. aureus DSM 20231; main component drawn) | Bliss interaction score (S. pneumoniae D39V; main component drawn) | Bliss interaction score (B. subtilis 168; main component drawn) | Bliss interaction score (S. aureus Newman; main component drawn) |
| --- | --- | --- | --- | --- | --- | --- | --- | --- |
| CO[C@@H]1[C@@H](OC(N)=O)[C@@H](O)[C@H](Oc2ccc3c(O)c(NC(=O)c4ccc(O)c(CC=C(C)C)c4)c(=O)oc3c2C)OC1(C)C [Novobiocin] + CN[C@H](CC(C)C)C(=O)N[C@H]1C(=O)N[C@@H](CC(N)=O)C(=O)N[C@H]2C(=O)N[C@H]3C(=O)N[C@H](C(=O)N[C@H](C(=O)O)c4cc(O)cc(O)c4-c4cc3ccc4O)[C@H](O)c3ccc(c(Cl)c3)Oc3cc2cc(c3O[C@@H]2O[C@H](CO)[C@@H](O)[C@H](O)[C@H]2O[C@H]2C[C@](C)(N)[C@H](O)[C@H](C)O2)Oc2ccc(cc2Cl)[C@H]1O [Vancomycin] | -0.0386 | -0.133 | 0.071 | -0.0447 |  |  |  |  |
| CN[C@H](CC(C)C)C(=O)N[C@H]1C(=O)N[C@@H](CC(N)=O)C(=O)N[C@H]2C(=O)N[C@H]3C(=O)N[C@H](C(=O)N[C@H](C(=O)O)c4cc(O)cc(O)c4-c4cc3ccc4O)[C@H](O[C@H]3C[C@](C)(N)[C@@H](O)[C@H](C)O3)c3ccc(c(Cl)c3)Oc3cc2cc(c3O[C@@H]2O[C@H](CO)[C@@H](O)[C@H](O)[C@H]2O[C@H]2C[C@](C)(NCc3ccc(-c4ccc(Cl)cc4)cc3)[C@@H](O)[C@H](C)O2)Oc2ccc(cc2Cl)[C@H]1O [Oritavancin] + Cn1nnc(-c2ccc(-c3ccc(N4C[C@H](CO)OC4=O)cc3F)cn2)n1 [Tedizolid] | -0.0541 | -0.0205 | -0.0251 | -0.0895 |  |  |  |  |
| CO[C@@]12[C@H](COC(N)=O)C3=C(C(=O)C(C)=C(N)C3=O)N1C[C@@H]1N[C@@H]12 [MitomycinC] + CN[C@H](CC(C)C)C(=O)N[C@H]1C(=O)N[C@@H](CC(N)=O)C(=O)N[C@H]2C(=O)N[C@H]3C(=O)N[C@H](C(=O)N[C@H](C(=O)O)c4cc(O)cc(O)c4-c4cc3ccc4O)[C@H](O[C@H]3C[C@](C)(N)[C@@H](O)[C@H](C)O3)c3ccc(c(Cl)c3)Oc3cc2cc(c3O[C@@H]2O[C@H](CO)[C@@H](O)[C@H](O)[C@H]2O[C@H]2C[C@](C)(NCc3ccc(-c4ccc(Cl)cc4)cc3)[C@@H](O)[C@H](C)O2)Oc2ccc(cc2Cl)[C@H]1O [Oritavancin] | -0.0806 | -0.0514 | 0.017 | 0.0841 |  |  |  |  |
| CC[C@H]1OC(=O)[C@H](C)[C@@H](O[C@H]2C[C@@](C)(OC)[C@@H](O)[C@H](C)O2)[C@H](C)[C@@H](O[C@@H]2O[C@H](C)C[C@H](N(C)C)[C@H]2O)[C@](C)(O)C[C@@H](C)C(=O)[C@H](C)[C@@H](O)[C@]1(C)O [Erythromycin] + COc1ccc(C[C@H](N)C(=O)N[C@H]2[C@@H](O)[C@H](n3cnc4c(N(C)C)ncnc43)O[C@@H]2CO)cc1 [Puromycin] | -0.0389 | -0.0449 | -0.0531 | -0.0378 |  |  |  |  |
| CC[C@H](C)[C@H](N)C1=N[C@H](C(=O)N[C@@H](CC(C)C)C(=O)N[C@H](CCC(=O)O)C(=O)N[C@H](C(=O)N[C@H]2CCCCNC(=O)[C@H](CC(N)=O)NC(=O)[C@@H](CC(=O)O)NC(=O)[C@H](Cc3cnc[nH]3)NC(=O)[C@@H](Cc3ccccc3)NC(=O)[C@H]([C@@H](C)CC)NC(=O)[C@@H](CCCN)NC2=O)[C@@H](C)CC)CS1 [Bacitracin] + CN[C@H](CC(C)C)C(=O)N[C@H]1C(=O)N[C@@H](CC(N)=O)C(=O)N[C@H]2C(=O)N[C@H]3C(=O)N[C@H](C(=O)N[C@H](C(=O)O)c4cc(O)cc(O)c4-c4cc3ccc4O)[C@H](O[C@H]3C[C@](C)(N)[C@@H](O)[C@H](C)O3)c3ccc(c(Cl)c3)Oc3cc2cc(c3O[C@@H]2O[C@H](CO)[C@@H](O)[C@H](O)[C@H]2O[C@H]2C[C@](C)(NCc3ccc(-c4ccc(Cl)cc4)cc3)[C@@H](O)[C@H](C)O2)Oc2ccc(cc2Cl)[C@H]1O [Oritavancin] |  |  |  |  | -0.0199 | 0.0372 | -0.0398 | 0.084 |
| CN[C@H](CC(C)C)C(=O)N[C@H]1C(=O)N[C@@H](CC(N)=O)C(=O)N[C@H]2C(=O)N[C@H]3C(=O)N[C@H](C(=O)N[C@H](C(=O)O)c4cc(O)cc(O)c4-c4cc3ccc4O)[C@H](O[C@H]3C[C@](C)(N)[C@@H](O)[C@H](C)O3)c3ccc(c(Cl)c3)Oc3cc2cc(c3O[C@@H]2O[C@H](CO)[C@@H](O)[C@H](O)[C@H]2O[C@H]2C[C@](C)(NCc3ccc(-c4ccc(Cl)cc4)cc3)[C@@H](O)[C@H](C)O2)Oc2ccc(cc2Cl)[C@H]1O [Oritavancin] + COc1cc(Cc2cnc(N)nc2N)cc(OC)c1OC [Trimethoprim] | -0.0406 | 0.078 | 0.0391 | -0.111 |  |  |  |  |
| CO[C@@]12[C@H](COC(N)=O)C3=C(C(=O)C(C)=C(N)C3=O)N1C[C@@H]1N[C@@H]12 [MitomycinC] + CC[C@H]1OC(=O)[C@H](C)C(=O)[C@H](C)[C@@H](O[C@@H]2O[C@H](C)C[C@H](N(C)C)[C@H]2O)[C@](C)(OC)C[C@@H](C)C(=O)[C@H](C)[C@H]2N(CCCCn3cnc(-c4cccnc4)c3)C(=O)O[C@]12C [Telithromycin] | -0.0567 | -0.102 | 0.0694 | -0.0269 |  |  |  |  |
| CC[C@H](C)[C@H](N)C1=N[C@H](C(=O)N[C@@H](CC(C)C)C(=O)N[C@H](CCC(=O)O)C(=O)N[C@H](C(=O)N[C@H]2CCCCNC(=O)[C@H](CC(N)=O)NC(=O)[C@@H](CC(=O)O)NC(=O)[C@H](Cc3cnc[nH]3)NC(=O)[C@@H](Cc3ccccc3)NC(=O)[C@H]([C@@H](C)CC)NC(=O)[C@@H](CCCN)NC2=O)[C@@H](C)CC)CS1 [Bacitracin] + CN(C)[C@@H]1C(O)=C(C(N)=O)C(=O)[C@@]2(O)C(O)=C3C(=O)c4c(O)ccc(Cl)c4[C@@](C)(O)[C@H]3C[C@@H]12 [Clortetracycline] |  |  |  |  | 0.0294 | 0.135 | -0.12 | -0.0827 |
